Assay results: ChEMBL document CHEMBL1201862, “PubChem BioAssay data set” (2004)
Where “and” joins values, the source holds several entries; their conditions need not be identical. Equal values may be shown once.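 1) Cells in 96-well plates. 2) Compound, 48 h, 5 concentrations. 3) Linear interpolation between surrounding doses. 4) Unreached endpoint = highest concentration. GI50 is the concentration that inhibits growth by half.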 Calls of active or inactive are those of the source. No stated cut-off is given here; in the data, active = GI50 up to about 1.1 µM and inactive = higher.

Assays:
Assay in all cases: NCI anticancer screen, dose series, 48 h
[1] = test system: OVCAR-8
[2] = test system: SF-268
[3] = test system: UO-31
[4] = test system: NCI-H226
[5] = test system: EKVX
[6] = test system: LOX IMVI
[7] = test system: KM12
[8] = test system: RXF 393
[9] = test system: ACHN
[10] = test system: K562
[11] = test system: HCT-116
[12] = test system: SN12C
[13] = test system: U-251
[14] = test system: HOP-92
[15] = test system: SR
[16] = test system: SW-620
[17] = test system: OVCAR-5
[18] = test system: SK-OV-3
[19] = test system: NCI-H522
[20] = test system: DMS-273
[21] = test system: Malme-3M
[22] = test system: SNB-75
[23] = test system: COLO 205
[24] = test system: HL-60
[25] = test system: KM-20L2
[26] = test system: OVCAR-4
[27] = test system: SK-MEL-2
[28] = test system: HCT-15
[29] = test system: NCI-H460
[30] = test system: UACC-62
[31] = test system: LXFL 529
[32] = test system: SF-295
[33] = test system: A549
[34] = test system: CCRF-CEM
[35] = test system: HT-29
[36] = test system: CAKI-1
[37] = test system: NCI-H23
[38] = test system: RXF 631
[39] = test system: 786-0
[40] = test system: M14
[41] = test system: IGROV-1
[42] = test system: UACC-257
[43] = test system: MOLT-4
[44] = test system: XF498
[45] = test system: DLD-1
[46] = test system: RPMI-8226
[47] = test system: SF-539
[48] = test system: M19-MEL
[49] = test system: SNB-78
[50] = test system: SNB-19
[51] = test system: HOP-62
[52] = test system: OVCAR-3
[53] = test system: PC-3
[54] = test system: MDA-N
[55] = test system: SK-MEL-5
[56] = test system: Hs-578T
[57] = test system: HOP-18
[58] = test system: BT-549
[59] = test system: A498
[60] = test system: DMS-114
[61] = test system: MDA-MB-435
[62] = test system: NCI/ADR-RES
[63] = test system: HCC 2998
[64] = test system: TK-10
[65] = test system: SK-MEL-28

O=c1cccccc1NCCCCCCCNc1cccccc1=O
GI50 [1]: 31.6 µM (inactive) | GI50 [2]: 43.5 µM (inactive) | GI50 [3]: 25.3 µM (inactive) | GI50 [4]: 34.5 µM (inactive) | GI50 [5]: 20.4 µM (inactive) | GI50 [6]: 12.1 µM (inactive) | GI50 [7]: 56.4 µM (inactive) | GI50 [8]: 7.74 µM (inactive) | GI50 [9]: 26.7 µM (inactive) | GI50 [10]: 17.8 µM (inactive) | GI50 [11]: 37.2 µM (inactive) | GI50 [12]: 49.3 µM (inactive) | GI50 [13]: > 10 µM (inactive) | GI50 [14]: 41.6 µM (inactive) | GI50 [15]: 22.1 µM (inactive) | GI50 [16]: 52 µM (inactive) | GI50 [17]: 77.1 µM (inactive) | GI50 [18]: 42.6 µM (inactive) | GI50 [19]: 13.8 µM (inactive) | GI50 [20]: 33.3 µM (inactive) | GI50 [21]: 29.2 µM (inactive) | GI50 [22]: 95.9 µM (inactive) | GI50 [23]: 40.1 µM (inactive) | GI50 [24]: 11.1 µM (inactive) | GI50 [25]: 38.1 µM (inactive) | GI50 [26]: 27 µM (inactive) | GI50 [27]: 49 µM (inactive) | GI50 [28]: 35.2 µM | GI50 [29]: 29.7 µM (inactive) | GI50 [30]: 19.4 µM (inactive) | GI50 [31]: 16.9 µM (inactive) | GI50 [32]: 34 µM (inactive) | GI50 [33]: 21.8 µM (inactive) | GI50 [34]: 13.4 µM (inactive) | GI50 [35]: 55.5 µM (inactive) | GI50 [36]: 45.6 µM (inactive) | GI50 [37]: 19.7 µM (inactive) | GI50 [38]: 8.02 µM (inactive) | GI50 [39]: > 100 µM (inactive) | GI50 [40]: 23 µM (inactive) | GI50 [41]: 54.2 µM (inactive) | GI50 [42]: 16.4 µM (inactive) | GI50 [43]: 17 µM (inactive) | GI50 [44]: 10.6 µM (inactive) | GI50 [45]: 42.6 µM (inactive) | GI50 [46]: 13.8 µM (inactive) | GI50 [47]: 91.4 µM (inactive) | GI50 [48]: 24 µM (inactive) | GI50 [49]: 47.8 µM (inactive) | GI50 [50]: 33.7 µM (inactive) | GI50 [51]: > 100 µM (inactive) | GI50 [52]: 24.5 µM (inactive)

COC1=C(N)C(=O)c2nc(-c3nc(C(=O)O)c(C)c(-c4ccc(OC)c(OC)c4O)c3N)ccc2C1=O [STREPTONIGRIN]
GI50 [53]: 0.0071 µM (active) | GI50 [4]: < 10 nM (active) and 5.73 nM (active) | GI50 [6]: 0.00581 µM (active) | GI50 [54]: 0.00792 µM (active) | GI50 [11]: 0.00619 µM (active) | GI50 [12]: 0.00785 µM (active) | GI50 [55]: < 10 nM (active) and 5.81 nM (active) | GI50 [16]: 6.03 nM (active) and 10 nM (active) | GI50 [56]: < 0.01 µM (active) | GI50 [18]: 0.00826 µM (active) | GI50 [57]: < 0.01 µM (active) | GI50 [20]: < 0.01 µM (active) | GI50 [58]: 0.00526 µM (active) | GI50 [59]: 8.11 nM (active) and 12.6 nM (active) | GI50 [25]: 10 nM (active) and 19 nM (active) | GI50 [60]: < 0.01 µM (active) | GI50 [61]: < 10 nM (active) and 8.59 nM (active) | GI50 [31]: 0.01 µM (active) | GI50 [33]: 0.00505 µM (active) | GI50 [34]: < 10 nM (active) and 6.01 nM (active) | GI50 [42]: 7.87 nM (active) and < 10.7 nM (active) | GI50 [44]: < 0.01 µM (active) | GI50 [45]: 0.0131 µM (active) | GI50 [48]: 0.01 µM (active) | GI50 [62]: 0.00893 µM (active) | GI50 [63]: 5.65 nM (active) and < 10.9 nM (active) | GI50 [49]: 19.4 nM (active) and < 10 nM (active)

O=c1c2cc(Br)ccc2nc(CCl)n1-c1ccc(O)c([N+](=O)[O-])c1
GI50 [1]: 19.9 µM (inactive) | GI50 [2]: 20.8 µM (inactive) | GI50 [3]: 15.5 µM (inactive) | GI50 [4]: 14.5 µM (inactive) | GI50 [5]: 17.5 µM (inactive) | GI50 [6]: 19 µM (inactive) | GI50 [7]: 19 µM (inactive) | GI50 [8]: 12.9 µM (inactive) | GI50 [64]: 18.7 µM (inactive) | GI50 [9]: 26.4 µM (inactive) | GI50 [10]: 22.4 µM (inactive) | GI50 [12]: 18.8 µM (inactive) | GI50 [13]: 38.9 µM (inactive) | GI50 [14]: 29.2 µM (inactive) | GI50 [55]: 15.9 µM (inactive) | GI50 [16]: 19.2 µM (inactive) | GI50 [17]: 63.5 µM (inactive) | GI50 [18]: 37.8 µM (inactive) | GI50 [19]: 18.8 µM (inactive) | GI50 [21]: 17.5 µM (inactive) | GI50 [22]: 20.8 µM (inactive) | GI50 [59]: 20.1 µM (inactive) | GI50 [23]: 20.3 µM (inactive) | GI50 [24]: 23.2 µM (inactive) | GI50 [25]: 33 µM (inactive) | GI50 [26]: 18.7 µM (inactive) | GI50 [27]: 16 µM (inactive) | GI50 [28]: 19.7 µM | GI50 [29]: 34.1 µM (inactive) | GI50 [30]: 26.6 µM (inactive) | GI50 [31]: 20.9 µM (inactive) | GI50 [32]: 16.3 µM (inactive) | GI50 [33]: 22.4 µM (inactive) | GI50 [34]: 22.4 µM (inactive) | GI50 [35]: 27.7 µM (inactive) | GI50 [36]: 21.7 µM (inactive) | GI50 [37]: 16.7 µM (inactive) | GI50 [38]: > 10 µM (inactive) | GI50 [39]: 16.1 µM (inactive) | GI50 [40]: 22.3 µM (inactive) | GI50 [41]: 24 µM (inactive) | GI50 [42]: 19.1 µM (inactive) | GI50 [43]: 23.1 µM (inactive) | GI50 [44]: 15.4 µM (inactive) | GI50 [45]: 17.7 µM (inactive) | GI50 [46]: 25 µM (inactive) | GI50 [47]: 19.2 µM (inactive) | GI50 [48]: 19.8 µM (inactive) | GI50 [65]: 17.6 µM (inactive) | GI50 [63]: 19.9 µM (inactive) | GI50 [49]: 22.9 µM (inactive) | GI50 [51]: 20.9 µM (inactive) | GI50 [52]: 18.2 µM (inactive)
